The values that follow come from patent US20070249844A1, “Pyrazole derivatives and process for the production thereof” (Ihara Chemical Industry Co., Ltd., priority 2002, published 2007).

As for `CCn1nc(C(F)(F)F)c(C)c1O`, the melting point fell in the range of 150 to 152 °C. In the case of `CCCn1nc(C(F)(F)F)c(C)c1O`, the melting point was in the range of 133 to 134 °C. In turn, `Br.CCn1nc(C(F)(F)F)c(CSC(=N)N)c1OC(F)F` gave a melting point of 139 to 141 °C. `Cn1nc(C(F)(F)F)c(CSC2=NOC(C)(C)C2)c1OC(F)F` gave a melting point of 39 to 40 °C. Turning to `Cn1nc(C(F)(F)F)c(CS(=O)(=O)C2=NOCC2)c1OC(F)F`, the melting point was 115 to 117 °C. The same measure for `Cn1nc(C(F)(F)F)c(CS(=O)(=O)C2=NOC3CCCCC23)c1OC(F)F` (stereo not drawn): 97 to 98 °C.

Molecule `CC1CC(S(=O)(=O)Cc2c(C(F)(F)F)nn(C)c2OC(F)F)=NO1` (stereo not drawn) had a melting point of 106 to 107 °C. The same measure for `CC(C)C1CC(S(=O)(=O)Cc2c(C(F)(F)F)nn(C)c2OC(F)F)=NO1` (stereo not drawn): 85 to 86 °C; for `Cn1nc(C(F)(F)F)c(CS(=O)(=O)C2=NOC(C)(C)C2)c1OCC(F)(F)F`: 93 to 95 °C. For `Cn1nc(C(F)(F)F)c(CS(=O)(=O)C2=NOC(C)(C)C2)c1OCC(F)F`, the melting point lay within 89 to 91 °C. The molecule `CC(C)n1nc(C(F)(F)F)c(CS(=O)(=O)C2=NOC(C)(C)C2)c1OCC(F)F` returned a melting point of 88 to 89 °C.

With `CC(C)n1nc(C(F)(F)F)c(CS(=O)(=O)C2=NOC(C)(C)C2)c1OCC(F)(F)F`, the melting point lay in the range of 109 to 110 °C.

Molecule `CCCn1nc(C(F)(F)F)c(CS(=O)(=O)C2=NOC(C)(C)C2)c1OCC(F)(F)F` showed a melting point of 49 to 51 °C. Take `CCn1nc(C(F)(F)F)c(CS(=O)(=O)C2=NOC(C)(C)C2)c1OCC(F)(F)F`: the melting point lay in the range of 84 to 86 °C. The same measure for `CC1(C)CC(S(=O)(=O)Cc2c(C(F)(F)F)nn(C(C)(C)C)c2OCC(F)(F)F)=NO1`: 91 to 92 °C; for `CCn1nc(C(F)(F)F)c(CS(=O)(=O)C2=NOC(C)(C)C2)c1OC(F)F`: 98 to 100 °C; for `CCC1(C)CC(S(=O)(=O)Cc2c(C(F)(F)F)nn(C)c2OC(F)F)=NO1` (stereo not drawn): 77 to 78 °C. For the molecule `Cn1nc(C(F)(F)F)c(CS(=O)(=O)C2=NOC(C)(C3CC3)C2)c1OC(F)F` (stereo not drawn), the melting point was 96 to 98 °C.
